The target of test [1] is T1, Potassium/sodium hyperpolarization-activated cyclic nucleotide-gated channel 3 (Homo sapiens, UniProt Q9P1Z3).
T1 sequence (Q9P1Z3 whole entry): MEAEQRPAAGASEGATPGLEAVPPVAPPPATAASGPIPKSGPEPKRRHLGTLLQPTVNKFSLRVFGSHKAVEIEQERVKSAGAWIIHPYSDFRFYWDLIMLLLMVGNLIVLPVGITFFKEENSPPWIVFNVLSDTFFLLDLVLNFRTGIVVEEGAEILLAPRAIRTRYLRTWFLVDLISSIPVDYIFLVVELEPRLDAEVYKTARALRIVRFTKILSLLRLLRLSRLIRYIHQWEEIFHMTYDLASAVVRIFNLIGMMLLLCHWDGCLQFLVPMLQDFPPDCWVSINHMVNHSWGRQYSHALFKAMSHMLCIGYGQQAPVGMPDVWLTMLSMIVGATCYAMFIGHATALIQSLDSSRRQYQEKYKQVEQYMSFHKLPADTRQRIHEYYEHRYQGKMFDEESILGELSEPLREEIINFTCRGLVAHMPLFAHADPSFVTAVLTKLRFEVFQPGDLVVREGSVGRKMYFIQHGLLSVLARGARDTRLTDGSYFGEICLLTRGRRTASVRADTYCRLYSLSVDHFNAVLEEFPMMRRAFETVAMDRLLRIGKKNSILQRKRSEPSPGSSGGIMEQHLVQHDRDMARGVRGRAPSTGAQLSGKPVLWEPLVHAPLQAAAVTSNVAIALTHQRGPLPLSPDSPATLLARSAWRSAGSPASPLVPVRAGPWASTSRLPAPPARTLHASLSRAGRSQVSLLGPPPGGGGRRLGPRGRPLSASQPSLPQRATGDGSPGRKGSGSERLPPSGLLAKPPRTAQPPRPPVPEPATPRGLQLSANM
Description: Inhibition of human HCN3 heterologously expressed in HEK-293 cells after 30 mins by VIPR assay. In kind it is cell-based, HEK293.

For test [2], the target named is T2, Potassium/sodium hyperpolarization-activated cyclic nucleotide-gated channel 1 (Homo sapiens, UniProt O60741).
T2 sequence (O60741 whole entry): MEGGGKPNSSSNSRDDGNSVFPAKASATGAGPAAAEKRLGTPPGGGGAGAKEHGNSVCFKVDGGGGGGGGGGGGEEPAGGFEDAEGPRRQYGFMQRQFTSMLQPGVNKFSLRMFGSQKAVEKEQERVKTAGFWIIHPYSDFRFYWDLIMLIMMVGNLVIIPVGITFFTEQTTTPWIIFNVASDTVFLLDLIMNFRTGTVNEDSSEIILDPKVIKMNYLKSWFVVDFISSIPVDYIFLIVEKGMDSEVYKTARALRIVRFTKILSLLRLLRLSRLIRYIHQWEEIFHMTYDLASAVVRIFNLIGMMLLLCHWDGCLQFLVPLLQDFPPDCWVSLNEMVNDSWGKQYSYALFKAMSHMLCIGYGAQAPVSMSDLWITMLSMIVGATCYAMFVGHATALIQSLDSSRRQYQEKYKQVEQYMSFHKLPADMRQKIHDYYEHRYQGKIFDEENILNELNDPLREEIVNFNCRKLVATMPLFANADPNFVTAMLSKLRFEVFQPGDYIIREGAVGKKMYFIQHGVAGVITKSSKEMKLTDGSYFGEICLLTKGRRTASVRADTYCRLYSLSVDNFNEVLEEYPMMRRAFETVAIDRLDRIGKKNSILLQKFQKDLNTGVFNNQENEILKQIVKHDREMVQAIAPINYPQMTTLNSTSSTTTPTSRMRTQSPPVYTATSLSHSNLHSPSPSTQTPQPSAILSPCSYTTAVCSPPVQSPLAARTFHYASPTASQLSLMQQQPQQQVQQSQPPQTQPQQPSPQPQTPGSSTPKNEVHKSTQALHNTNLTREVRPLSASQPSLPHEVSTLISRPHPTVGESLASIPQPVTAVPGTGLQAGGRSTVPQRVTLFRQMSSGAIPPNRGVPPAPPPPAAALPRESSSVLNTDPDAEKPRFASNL
Description: Inhibition of human HCN1 heterologously expressed in HEK-293 cells after 30 mins by VIPR assay. In kind it is cell-based, HEK293.

As for `CCOc1ccccc1C(=O)NCC1(N2CCNCC2)CCCCC1`, the IC50 in test [1] is 3160 nM; in test [2], 398 nM.

A word on the IC50: it is the concentration that inhibits the measured activity by half. Read a high IC50 as lower potency.

(Values after ChEMBL document CHEMBL1821572, “Discovery of a novel series of selective HCN1 blockers” (Bioorg Med Chem Lett, 2011).)
